Assay results taken from ChEMBL document CHEMBL5500354, “Novel selective agents for the degradation of AR/AR-V7 to treat advanced prostate cancer” (Eur J Med Chem, 2024).

Legend:
[1] = system: LNCaP; assay: cells; conditions: Homo sapiens, 24 h, read-out: INH
Description: Antiproliferative activity against human LNCaP cells assessed as inhibition rate at 10 uM incubated for 24 hrs by CCK8 assay relative to control

[2] = biological target: T1, Androgen receptor (Homo sapiens, UniProt P10275)
T1 sequence (P10275 whole entry): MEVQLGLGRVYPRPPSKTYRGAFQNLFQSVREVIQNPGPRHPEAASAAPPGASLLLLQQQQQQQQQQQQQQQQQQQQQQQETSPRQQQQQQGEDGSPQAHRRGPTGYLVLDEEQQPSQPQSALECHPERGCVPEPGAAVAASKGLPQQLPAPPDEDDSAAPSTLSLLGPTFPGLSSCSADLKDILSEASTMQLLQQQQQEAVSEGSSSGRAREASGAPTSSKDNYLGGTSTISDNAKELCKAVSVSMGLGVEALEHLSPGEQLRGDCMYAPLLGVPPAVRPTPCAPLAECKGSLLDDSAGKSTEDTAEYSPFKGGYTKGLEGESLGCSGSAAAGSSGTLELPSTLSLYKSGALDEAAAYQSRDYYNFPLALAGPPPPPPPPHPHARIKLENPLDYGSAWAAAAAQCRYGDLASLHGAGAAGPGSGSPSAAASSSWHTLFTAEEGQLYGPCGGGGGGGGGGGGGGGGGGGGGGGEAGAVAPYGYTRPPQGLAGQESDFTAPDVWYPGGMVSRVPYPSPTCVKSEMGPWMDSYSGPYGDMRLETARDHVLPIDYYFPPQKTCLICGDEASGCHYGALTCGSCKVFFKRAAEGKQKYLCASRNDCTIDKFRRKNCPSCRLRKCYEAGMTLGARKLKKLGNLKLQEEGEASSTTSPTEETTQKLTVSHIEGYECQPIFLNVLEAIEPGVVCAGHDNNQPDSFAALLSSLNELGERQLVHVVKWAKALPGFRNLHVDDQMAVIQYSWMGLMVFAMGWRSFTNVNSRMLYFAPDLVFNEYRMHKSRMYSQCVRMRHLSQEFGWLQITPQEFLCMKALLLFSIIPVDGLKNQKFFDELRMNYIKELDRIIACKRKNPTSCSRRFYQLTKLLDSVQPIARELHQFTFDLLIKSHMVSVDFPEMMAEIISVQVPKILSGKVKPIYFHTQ
Description: Antagonist activity at androgen receptor (unknown origin) transfected in HEK293T cells co-transfected with luciferase reporter gene assessed as inhibition of transcriptional activity incubated for 18 to 20 hrs by luminescence plate reader analysis

[3] = biological target: T1, Androgen receptor; assay: Binding affinity to human androgen receptor transfected in HEK293 cell membrane co-transfected with ARC1 assessed as inhibition of [3H]-methyltrienolone binding to receptor incubated for 30 mins by competitive ligand binding assay
[4] = system: CWR22R; assay: cells; conditions: Homo sapiens, 22Rv1, 24 h, read-out: INH
Description: Antiproliferative activity against human 22Rv1 cells assessed as inhibition rate at 10 uM incubated for 24 hrs by CCK8 assay relative to control

[5] = system: LNCaP; assay: Antiproliferative activity against human LNCaP cells assessed as reduction in cell viability incubated for 24 hrs by CCK8 assay
[6] = system: CWR22R; assay: Antiproliferative activity against human 22Rv1 cells assessed as reduction in cell viability incubated for 24 hrs by CCK8 assay; conditions: 22Rv1, 24 h
[7] = biological target: T2, Androgen receptor (Rattus norvegicus, UniProt P15207); assay: Binding affinity to GST/His-tagged recombinant rat androgen receptor (606 to 902 residues) ligand binding domain expressed in baculovirus expression system assessed as dissociation constant by Biolayer interferometric analysis
T2 sequence (P15207 whole entry): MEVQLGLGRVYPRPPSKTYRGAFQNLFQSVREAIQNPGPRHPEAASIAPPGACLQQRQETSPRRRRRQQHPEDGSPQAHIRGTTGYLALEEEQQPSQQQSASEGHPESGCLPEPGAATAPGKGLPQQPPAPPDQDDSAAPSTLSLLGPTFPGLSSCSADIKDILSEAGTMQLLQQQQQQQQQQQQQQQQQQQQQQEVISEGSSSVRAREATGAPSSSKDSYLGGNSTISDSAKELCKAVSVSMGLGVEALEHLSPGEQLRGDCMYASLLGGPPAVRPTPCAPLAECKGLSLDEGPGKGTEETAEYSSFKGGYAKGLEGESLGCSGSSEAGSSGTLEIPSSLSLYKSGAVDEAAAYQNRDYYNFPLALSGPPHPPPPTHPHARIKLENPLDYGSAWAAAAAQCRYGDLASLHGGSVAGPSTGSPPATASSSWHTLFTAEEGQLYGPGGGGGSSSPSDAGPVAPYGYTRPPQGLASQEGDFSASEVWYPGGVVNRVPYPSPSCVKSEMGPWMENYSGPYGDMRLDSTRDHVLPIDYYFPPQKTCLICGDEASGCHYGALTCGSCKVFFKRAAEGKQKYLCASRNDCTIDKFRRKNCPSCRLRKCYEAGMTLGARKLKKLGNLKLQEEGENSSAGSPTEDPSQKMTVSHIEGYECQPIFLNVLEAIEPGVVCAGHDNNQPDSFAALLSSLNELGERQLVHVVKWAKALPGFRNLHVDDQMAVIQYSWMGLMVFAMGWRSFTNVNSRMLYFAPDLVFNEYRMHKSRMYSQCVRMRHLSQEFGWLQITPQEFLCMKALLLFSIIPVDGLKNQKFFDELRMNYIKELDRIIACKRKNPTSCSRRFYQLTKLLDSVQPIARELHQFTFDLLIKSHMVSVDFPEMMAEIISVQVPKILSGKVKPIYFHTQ

| SMILES | inhibition at 10 µM [1] | IC50 [2] | IC50 [3] | inhibition at 10 µM [4] | IC50 [5] | IC50 [6] | Kd [7] |
| --- | --- | --- | --- | --- | --- | --- | --- |
| N#Cc1ccc(O[C@H]2CC[C@H](NC(=O)c3cccnn3)CC2)cc1Cl | < 10% | 60.8 nM | 1.52 nM | < 10% |  |  |  |
| N#Cc1ccc(O[C@H]2CC[C@H](NC(=O)c3ccc(N4CCC(CN5CCN(c6ccc(/C=C/C(=O)O)cc6)CC5)CC4)nn3)CC2)cc1Cl | 36% |  |  | < 10% |  |  |  |
| CCCNc1ccc(CC2CCN(c3ccc(C(=O)N[C@H]4CC[C@H](Oc5ccc(C#N)c(Cl)c5)CC4)nn3)CC2)cc1 | < 10% |  |  | < 10% |  |  |  |
| N#Cc1ccc(O[C@H]2CC[C@H](NC(=O)c3ccc(-c4ccc(NCCCCCF)cc4)nn3)CC2)cc1Cl | < 10% |  |  | < 10% |  |  |  |
| N#Cc1ccc(O[C@H]2CC[C@H](NC(=O)c3ccc(N4CCC(CN5CCN(CC[S+]([O-])CCCC(F)(F)C(F)(F)F)CC5)CC4)nn3)CC2)cc1Cl (stereo partly drawn) | 13% |  |  | < 10% |  |  |  |
| N#Cc1ccc(O[C@H]2CC[C@H](NC(=O)c3ccc(N4CCC(CNC5CN(CCCF)C5)CC4)nn3)CC2)cc1Cl | 10% | > 10000 nM | 5.41 nM | < 10% |  |  |  |
| N#Cc1ccc(O[C@H]2CC[C@H](NC(=O)c3ccc(N4CCC(CC5CN(CCCF)C5)CC4)nn3)CC2)cc1Cl | 21% |  | 3.67 nM | < 10% |  |  |  |
| N#Cc1ccc(O[C@H]2CC[C@H](NC(=O)c3ccc(N4CCC(CN5CCN(CCCC(F)(F)C(F)(F)F)CC5)CC4)nn3)CC2)cc1Cl | < 10% | > 10000 nM | 12.4 nM | < 10% |  |  |  |
| N#Cc1ccc(O[C@H]2CC[C@H](NC(=O)c3ccc(N4CCC(CN5CCN(c6ccc(NC7CN(CCCF)C7)cc6)CC5)CC4)nn3)CC2)cc1Cl | > 50% | 394 nM | 6.81 nM | > 50% | 6860 nM | 5120 nM |  |
| N#Cc1ccc(O[C@H]2CC[C@H](NC(=O)c3ccc(N4CCC(CN5CCN(C6CN(CCCF)C6)CC5)CC4)nn3)CC2)cc1Cl | 17% |  |  | 29% |  |  |  |
| N#Cc1ccc(O[C@H]2CC[C@H](NC(=O)c3ccc(N4CCC(Cc5ccc(NCCCF)cc5)CC4)nn3)CC2)cc1Cl | < 10% |  |  | < 10% |  |  |  |
| N#Cc1ccc(O[C@H]2CC[C@H](NC(=O)c3ccc(-c4ccc(NC5CN(CCCF)C5)cc4)nn3)CC2)cc1Cl | 13% |  |  | 28% |  |  |  |
| N#Cc1ccc(O[C@H]2CC[C@H](NC(=O)c3ccc(N4CCC(Cc5ccc(NC6CN(CCCF)C6)cc5)CC4)nn3)CC2)cc1Cl |  |  |  |  |  |  | 590 nM |
| N#Cc1ccc(O[C@H]2CC[C@H](NC(=O)c3ccc(N4CCC(N5CC(CF)C5)CC4)nn3)CC2)cc1Cl | 15% |  |  | < 10% |  |  |  |
